For assay [1], the system named is 181 Tyr→Cys mutation in the RT of HIV-1 strains. The note with it: cited from earlier work.
The test system of assay [2] is HIV-1 strains containing the 100 Leu→Ile mutation in their RT. To be noted: cited from earlier work.
Assay [3] deals with HIV-1 (IIIB). The assay is described as follows: inhibition of HIV-1(IIIB) (WT) induced syncytium formation in CEM cells. It counts as cell-based. The method, boiled down:
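CEM cells (~300,000/ml) were infected with ~100 CCID50 of virus and exposed to serial 5-fold compound dilutions. Syncytium formation was scored microscopically on day 4 post infection; EC50 is the concentration inhibiting syncytium formation by 50%.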

The test system of assay [4] is HIV-1/181-Cys. Nature of the assay: inhibition of syncytium formation in CEM cells, HIV-1 RT mutant 181-Cys. It counts as cell-based. The note with it: Human immunodeficiency virus 1, CCRF-CEM, 96 h, read-out: EC50 181-Cys. An excerpt: (§1) CEM cells were obtained from the American Tissue Cell Culture Collection (Rockville, Md.) . HIV-1 (IIIB) was originally obtained from the culture supernatant of persistently HIV-1-infected H9 cells and was provided by R. C. Gallo and M. Popovic (National Cancer Institute, National Institutes of Health, Bethesda, Md.).
(§2) The selection and characterization of the HIV-1 RT mutant strains were done as follows: HIV-1/100-Ile ("100-Ile") was selected for resistance against TIBO R82150 as described in Balzarini et al, Virology 192: 246-253 (1993); HIV-1/103-Asn ("103-Asn") was selected for resistance against TIBO R82913 as described in Balzarini et al, Virology 192: 246-253 (1993); HIV-1/106-Ala ("106-Ala") was selected for resistance against nevirapine as described in Balzarini et al, J. Virol. 67: 5353-5359 (1993); HIV-1/Lys-138 ("Lys-138") was selected for resistance against TSAO-m^3T as described in Balzarini et al, Virology 192: 246-253 (1993) and Balzarini et al, Proc. Nat. Acad. Sci. USA 90: 6952-6956 (1993); HIV-1/181-Cys ("181-Cys") was selected for resistance against pyridinone L-697,661 as described in Balzarini et al, Virology 192: 246-253 (1993); and HIV-1/188-His ("188-His") was selected for resistance against HEPT as described in Balzarini et al, Mol. Pharmocol. 44: 694-701 (1993). 188-His was then further converted to HIV-1/188-Leu ("188-Leu") upon further passage in cell culture in the absence of the HEPT. HIV-1/101-Glu ("101-Glu") and HIV-1/190-Glu ("190-Glu") were selected for resistance against the thiocarboxanilide derivative designated as UC38 as described in Balzarini et al, Antiviral Research 27: 219-236 (1995). HIV-1/184-Ile ("184-Ile") was selected for resistance against the combination of 3TC and TSAO-m^3 T as described in Balzarini et al, Molecular Pharm. 49: 882-890 (1996). HIV-1/184-Val ("184-Val") was selected for resistance against 3TC as described in Balzarini et al, Molecular Pharm. 49: 882-890 (1996).
(§3) CEM cells were suspended at ≈300,000 cells per ml of culture medium and infected with approximately 100 CCID50 (CCID50 being the 50% cell culture infective dose) of HIV-1(IIIB) (designated as "WT" in Table 3) or one of the HIV-1 RT mutant strains described above. Then 100 μl of the infected cell suspensions was added to 200 μl microtiter plate wells containing 100 μl of appropriate serial (5-fold) dilutions of the test compounds. The inhibitiory effect of the test compounds on HIV-1 induced syncytium formation in CEM cells was examined microscopically on day 4 post infection. The 50% effective concentration (EC50) was defined as the test compound concentration that inhibits syncytium formation in the HIV-1-infected cell cultures by 50%.

Assay [5] deals with HIV-1/100-Ile. Nature of the assay: inhibition of syncytium formation in CEM cells, HIV-1 RT mutant 100-Ile. It counts as cell-based. To be noted: Human immunodeficiency virus 1, CCRF-CEM, 96 h, read-out: EC50 100-Ile.
Source text: as §1, §2, §3

Assay [6] deals with 103-Ala. Nature of the assay: inhibition of syncytium formation in CEM cells, HIV-1 RT mutant 103-Ala. The format is cell-based. The note with it: Human immunodeficiency virus 1, CCRF-CEM, 96 h, read-out: EC50 103-Ala.
Assay [7] relates to HIV-1/190-Glu. Nature of the assay: inhibition of syncytium formation in CEM cells, HIV-1 RT mutant 190-Glu. It counts as cell-based. To be noted: Human immunodeficiency virus 1, CCRF-CEM, 96 h, read-out: EC50 190-Glu.
Source text: as §1, §2, §3

Assay [8] relates to HIV-1/106-Ala. The assay is described as follows: inhibition of syncytium formation in CEM cells, HIV-1 RT mutant 106-Ala. The format is cell-based. The note with it: Human immunodeficiency virus 1, CCRF-CEM, 96 h, read-out: EC50 106-Ala.
Source text: as §1, §2, §3

The subject of assay [9] is 138-Lys. Nature of the assay: inhibition of syncytium formation in CEM cells, HIV-1 RT mutant 138-Lys. It counts as cell-based. To be noted: Human immunodeficiency virus 1, CCRF-CEM, 96 h, read-out: EC50 138-Lys.
Source text: as §1, §2, §3

In assay [10] the test system is HIV-1/188-Leu. Nature of the assay: inhibition of syncytium formation in CEM cells, HIV-1 RT mutant 188-Leu. The format is cell-based. To be noted: Human immunodeficiency virus 1, CCRF-CEM, 96 h, read-out: EC50 188-Leu.
Source text: as §1, §2, §3

The subject of assay [11] is HIV-1/184-Val. Nature of the assay: inhibition of syncytium formation in CEM cells, HIV-1 RT mutant 184-Val. It counts as cell-based. The note with it: Human immunodeficiency virus 1, CCRF-CEM, 96 h, read-out: EC50 184-Val.
Source text: as §1, §2, §3

The test system of assay [12] is HIV-1/184-Ile. The assay is described as follows: inhibition of syncytium formation in CEM cells, HIV-1 RT mutant 184-Ile. To be noted: Human immunodeficiency virus 1, CCRF-CEM, 96 h, read-out: EC50 184-IIe. The format is cell-based.
Source text: as §1, §2, §3

Assay [13] concerns HIV-1/188-His. The assay is described as follows: inhibition of syncytium formation in CEM cells, HIV-1 RT mutant 188-His. The format is cell-based. The note with it: Human immunodeficiency virus 1, CCRF-CEM, 96 h, read-out: EC50 188-His.
Source text: as §1, §2, §3

Assay [14] relates to HIV-1/101-Glu. The assay is described as follows: inhibition of syncytium formation in CEM cells, HIV-1 RT mutant 101-Glu. The format is cell-based. To be noted: Human immunodeficiency virus 1, CCRF-CEM, 96 h, read-out: EC50 101-Glu.
Source text: as §1, §2, §3

Where “and” joins values, the source holds several entries; their conditions need not be identical. Equal entries are not always repeated. Where two headings read alike, the source gives them in different places. Bounds are passed on as bounds.

A word on the EC50: it is the concentration at which the effect is half-maximal.

With `Cc1ccnc2c1NC(=O)c1cccnc1N2C1CC1` [nevirapine], in [1], the “resistance of 181 Tyr→Cys mutant strains” value is recorded as “resistant”.

With `CC(C)=CCN1Cc2cccc3[nH]c(=S)n(c23)CC1C` (single isomer, unassigned) [Compound R82150], the “resistance of 100 Leu→Ile mutant strains” value in assay [2] is “resistant”.

As for `Cc1occc1C(=S)Nc1ccc(Cl)c(COc2ccc(F)cc2)c1` [Compound 11], the EC50 in [3] (Human immunodeficiency virus 1, IIIB, CCRF-CEM, 96 h, Table 3, HIV-1(IIIB), day 4 post infection, read-out: EC50 WT) is 0.065 µg/mL; in assay [3] (Table 2, day 4 post infection, replicate values, read-out: EC50, Activity Against HIV-1 (IIIB)), 85.1 nM and 161 nM and 276 nM; in assay [4] it was 0.14 µg/mL; in assay [5] it was 0.95 µg/mL; in [6], above 2 µg/mL; in assay [7], at least 2 µg/mL. For the same compound, the 50% effective concentration (EC50) in assay [8] was 1.1 µg/mL; in assay [9] it was 0.7 µg/mL; in [10], at least 2 µg/mL; in [11] it was 0.045 µg/mL; in assay [12], 0.16 µg/mL; in [13], above 2 µg/mL. Further, the EC50 in assay [14] was at least 2 µg/mL.

On to `CC(C)=CCN1Cc2cc(Cl)cc3[nH]c(=S)n(c23)CC1C` (single isomer, unassigned) [TIBO R82913], for which the “resistance of 100 Leu→Ile mutant strains” value in [2] is “resistant”.

The values above are taken from US6143780A, “N-arylmethylthioanilide compounds useful for the inhibition of the replication of HIV” (Uniroyal Chemical Company, Inc., priority 1999, dated 2000).
